Experimental data published in patent US4483989A, “Synthesis of pyrido[4,3-b]carbazole derivatives” (priority 1973, dated 1984).
pKd: −log10 of the molar value. Where “and” joins values, the source holds several entries; their conditions need not be identical. Identical values can stand only once. Like-named read-outs stand apart in the source and are kept apart here.

How the values were obtained:
[1] = system: mouse L 1210 leukemia; test: L1210 leukemia in mice: inoculum of 10^5 cells, single dose of compound 24 hours later; type: in vivo; settings: for % of killed cells / ILS (increased life span) % / Mean survival in days for treated mice: inoculum 10^5 L1210 cells; for Cured animals: cured/total; for Criterion (i): ILS higher than 100%: intraperitoneal injection of 10^5 cells
Text: The experimental tumor mouse L 1210 leukemia is commonly used to evaluate the effects of all the antitumor compounds now used in human therapeutics,as was described, for example, by C. C. ZUBROD in Proc. Nat. Acad. Sci. USA 69, 1972, pp. 1042-1047. This experimentally formed tumoral system permits very accurate quantitative evaluation of the activity of the compound tested and also, consequently, an objective comparison of the respective activities of various compounds, for example, according to the methods described by H. E. SKIPPER, F. M. SCHABEL Jr. and W. S. WILCOX in Cancer Chemiother. Rep. 1964, pp. 1-111 and 45, 1965, pp. 5-28.
(§1) The mice were randomized in each experimental series. A first routine experiment enable the death rate by toxicity to be determined and thus established the sublethal doses.
According to the convention in force in this field, the animals which survived longer than 45 days after inoculation of tumoral cells were considered to be cured.
(§2) To evaluate the therapeutic activity of the compounds of the invention, doses of said compound were expressed basing them on the 30 days sublethal dose which was fixed at 1.
A--A tumoral inoculum of 10^5 L1210 leukemia cells was administered by the intraperitoneal way to twenty 2 to 3 months old DBA/2 strain female mice. 24 hours later, half of said mice received a single intraperitoneal injection of a variable dose of the compound to be tested and the same volume of solvent was administered to the other half of the mice by the same way; this latter half of the group of mice was therefore used as the control series. The mice were randomized in each experimental series.
Animals surviving for longer than 45 days were considered to be cured.

[2] = system: mouse L 1210 leukemia; test: as above; type: in vivo; settings: for Criterion (iv): persistence of the antileukemic action after an intravenous injection: L1210 in vivo; for ILS (increased life span) %: I.V., dose 1 (the sublethal dose), inoculum 10^5 L1210 cells
[3] = for LDo (highest non lethal dose / sublethal dose) for mice: route not given; for DLo (I.P.): single i.p. injection
Text: as §1, §2

[4] = Solubility; type: physicochemical
[5] = target: DNA; test: DNA affinity; type: binding
[6] = Autoradiography with 14C-labeled molecules (biodisponibility); type: in vivo
Text: To understand the increase of the antitumor efficiency of the quaternarized compounds, several parameters of action of 9--OH--E and its methyl derivative have been comparatively established (see table III). Both compounds have about the same affinity for DNA. On a weight basis, the methyl compound is about 10 times more toxic in mice but also 10 times more efficient on leukemic mice (ILS). […] Therefore, there is no quantitative parallel between the in vivo and in vitro action of these drugs. The N-quaternization markedly changes the biodisponibility of the drugs as shown by autoradiography with ^14 C-labeled molecules. […] Several ellipticine derivatives are mutagenic on Ames Salmonella test; however, the quaternized derivatives lose this property. The microsomes, which are able to metabolize some ellipticines, increase the mutagenic ability of these drugs in vitro. […] Due to the curved shape of their molecules, their relative hydrophobicity, and the presence of a heterocyclic nitrogen, the ellipticines are good substrates for the cytochrome P450 system, provided that the 2-N remains uncharged.

[7] = Metabolic studies in mice
[8] = I.P., dose 0.1 of the sublethal dose
[9] = I.P., dose 1 (the sublethal dose)
[10] = I.P., dose 0.005 of the sublethal dose
[11] = I.P., dose 0.01 of the sublethal dose
[12] = I.P., dose 0.02 of the sublethal dose
[13] = I.P., dose 0.3 of the sublethal dose
[14] = I.P., dose 0.6 of the sublethal dose
[15] = I.P., dose 0.002 of the sublethal dose
[16] = I.P., dose 0.2 of the sublethal dose
[17] = I.P., dose 0.5 of the sublethal dose
[18] = I.P., dose 0.05 of the sublethal dose

9-hydroxy-2(β-diisopropylamino-ethyl)-ellipticiniu acetate
% of killed cells [1, 8]: < 90% | ILS (increased life span) % [1, 8]: 110% | Mean survival in days for treated mice [1, 8]: 10.7 days | % of killed cells [1, 9]: < 90% | ILS (increased life span) % [1, 9]: 110% | Mean survival in days for treated mice [1, 9]: 10.9 days | Criterion (iv): persistence of the antileukemic action after an intravenous injection [2]: +

CC(=O)Oc1ccc2c(c1)c1c(C)c3c[n+](C)ccc3c(C)c1n2C [9-acetoxy-2,6-dimethyl-ellipticinium acetate]
Antitumoral activity on L1210 leukemia (comparison in words) ([1]; mouse, in vivo): comparable with that of the 9-hydroxy-2,6-dimethyl-ellipticinium acetate | LDo (highest non lethal dose / sublethal dose) for mice [3]: 50 mg/kg

CC[n+]1ccc2c(C)c3[nH]c4ccc(OC(C)=O)cc4c3c(C)c2c1 [9-acetoxy-2-ethyl-ellipticinium acetate]
ILS (increased life span) % [1, 10]: 114% | ILS (increased life span) % [1, 11]: 134% | ILS (increased life span) % [1, 12]: 137% | ILS (increased life span) % [1, 8]: 157% | ILS (increased life span) % [1, 13]: 180% | ILS (increased life span) % [1, 14]: 191% | Chemotherapeutic index ([1]; L1210 in vivo): 100 | Criterion (ii): occurrence of cured animals ([1]; L1210 in vivo): + | Cured animals ([1]; L1210 in vivo, dose LDo /3): 3/20 | DLo (I.P.) ([3]; mice): 50 mg/kg

CCN(CC)CC[n+]1ccc2c(C)c3[nH]c4ccc(O)cc4c3c(C)c2c1 [9-hydroxy-2(β-diethylamino-ethyl)-ellipticinium acetate]
ILS (increased life span) % [1, 15]: 119% | ILS (increased life span) % [1, 11]: 137% | ILS (increased life span) % [1, 12]: 139% | ILS (increased life span) % [1, 8]: 173% | ILS (increased life span) % [1, 16]: 151% | ILS (increased life span) % [1, 13]: 243% | ILS (increased life span) % [1, 17]: 196% | Chemotherapeutic index ([1]; L1210 in vivo): 100 | Criterion (ii): occurrence of cured animals ([1]; L1210 in vivo): + | Cured animals ([1]; L1210 in vivo, dose LDo /2): 6/20 | DLo (I.V.) ([3]; mice, I.V.): 5 mg/kg | DLo (I.P.) ([3]; mice): 50 mg/kg | ILS (increased life span) % [2]: 112%

Cc1c2cc[n+](CCN3CCCCC3)cc2c(C)c2c1[nH]c1ccc(O)cc12 [9-hydroxy-2(β-piperidino-ethyl)-ellipticinium acetate]
ILS (increased life span) % [1, 15]: 113% | ILS (increased life span) % [1, 10]: 119% | ILS (increased life span) % [1, 11]: 124% | ILS (increased life span) % [1, 12]: 131% | ILS (increased life span) % [1, 8]: 181% | ILS (increased life span) % [1, 16]: 202% | ILS (increased life span) % [1, 9]: 171% | ILS (increased life span) % ([1]; I.V., dose 1 (the sublethal dose)): 131% | Chemotherapeutic index ([1]; L1210 in vivo): 100 | Criterion (ii): occurrence of cured animals ([1]; L1210 in vivo): + | Increased life span (ILS) ([1]; L1210 in vivo, dose LDo /5): 102% | Cured animals ([1]; L1210 in vivo, dose LDo): 5/15 | Criterion (i): ILS higher than 100% ([1]; L1210 in vivo): + (increased life span (ILS) higher than 100% after intraperitoneal injection of 10^5 cells) | Criterion (iv): persistence of the antileukemic action after an intravenous injection ([1]; L1210 in vivo, intravenous injection): + | DLo (I.V.) ([3]; mice, I.V.): 10 mg/kg | DLo (I.P.) ([3]; mice): 50 mg/kg

CCn1c2ccc(O)cc2c2c(C)c3c[n+](CC)ccc3c(C)c21 [9-hydroxy-2,6-diethyl-ellipticinium acetate]
Solubility [4]: well water soluble | Solubility ([4]; water, read-out: Concentration of easily prepared aqueous solution): 4 mg/mL

Cc1c2c[n+](C)ccc2c(C)c2c1c1cc(O)ccc1n2C [9-hydroxy-2,6-dimethyl-ellipticinium acetate]
Therapeutic index ([1]; L1210): extremely high | LDo (highest non lethal dose / sublethal dose) for mice [3]: 50 mg/kg

CC[n+]1ccc2c(C)c3[nH]c4ccc(O)cc4c3c(C)c2c1 [9-hydroxy-2-ethyl ellipticinium acetate, 9-hydroxy-2-ethyl-ellipticinium acetate]
ILS (increased life span) % [1, 15]: 114% | ILS (increased life span) % [1, 11]: 122% | ILS (increased life span) % [1, 12]: 132% | ILS (increased life span) % [1, 18]: 132% | ILS (increased life span) % [1, 8]: 175% | ILS (increased life span) % [1, 16]: 219% | ILS (increased life span) % ([1]; I.P., dose 0.4 of the sublethal dose): 165% | ILS (increased life span) % [1, 14]: 188% | ILS (increased life span) % [1, 9]: 157% | ILS (increased life span) % ([1]; I.V., dose 0.33 of the sublethal dose): 118% | Chemotherapeutic index ([1]; L1210 in vivo): 75 | Criterion (ii): occurrence of cured animals ([1]; L1210 in vivo): + | Increased life span (ILS) ([1]; L1210 in vivo, dose LDo /5): 119% | Cured animals ([1]; L1210 in vivo, dose LDo /5): 3/20 | Criterion (i): ILS higher than 100% ([1]; L1210 in vivo): + (increased life span (ILS) higher than 100% after intraperitoneal injection of 10^5 cells) | DL100 (I.P.) ([3]; mice, I.P.): 100 mg/kg | DL 100 (I.V.) ([3]; mice, I.V.): 20 mg/kg | DLo (I.V.) ([3]; mice, I.V.): 15 mg/kg | DLo (I.P.) ([3]; mice): 50 mg/kg | ILS (increased life span) % [2]: 124% | Criterion (iv): persistence of the antileukemic action after an intravenous injection [2]: +

Cc1c2cc[n+](CCO)cc2c(C)c2c1[nH]c1ccc(O)cc12 [9-hydroxy-2-hydroxyethyl-ellipticinium acetate]
ILS (increased life span) % [1, 11]: 115% | ILS (increased life span) % [1, 18]: 133% | ILS (increased life span) % [1, 8]: 159% and 151% | ILS (increased life span) % [1, 17]: 217% | ILS (increased life span) % [1, 9]: 197% | ILS (increased life span) % ([1]; I.P., dose 1.5 of the sublethal dose): 282% | ILS (increased life span) % ([1]; I.V., dose 0.25 of the sublethal dose): 121% | ILS (increased life span) % ([1]; I.V., dose 0.5 of the sublethal dose): 140% | ILS (increased life span) % ([1]; I.V., dose 2 × 0.5 of the sublethal dose): 142% | ILS (increased life span) % ([1]; I.V., dose 3 × 0.25 of the sublethal dose): 125% | Criterion (ii): occurrence of cured animals ([1]; L1210 in vivo): + | Increased life span (ILS) ([1]; L1210 in vivo, dose LDo /2): 117% | Cured animals ([1]; L1210 in vivo, dose LDo /2): 2/15 | Criterion (i): ILS higher than 100% ([1]; L1210 in vivo): + (increased life span (ILS) higher than 100% after intraperitoneal injection of 10^5 cells) | DLo (I.V.) ([3]; mice, I.V.): 20 mg/kg | DLo (I.P.) ([3]; mice): 10 mg/kg | ILS (increased life span) % [2]: 146% | Criterion (iv): persistence of the antileukemic action after an intravenous injection [2]: +

CC[n+]1ccc2c(C)c3c(c(C)c2c1)c1cc(O)ccc1n3C [9-hydroxy-6-methyl-2-ethyl-ellipticinium acetate]
ILS (increased life span) % [1, 8]: 127% | ILS (increased life span) % [1, 16]: 178% | ILS (increased life span) % [1, 14]: 202% | Increased life span (ILS) ([1]; L1210 in vivo, dose ≈ LDo /2): 102% | Criterion (i): ILS higher than 100% ([1]; L1210 in vivo): + (increased life span (ILS) higher than 100% after intraperitoneal injection of 10^5 cells) | DLo (I.V.) ([3]; mice, I.V.): 5 mg/kg | DLo (I.P.) ([3]; mice): 50 mg/kg | ILS (increased life span) % [2]: 115%

Cc1c2c[n+](C)ccc2c(C)c2c1c1cc(O)ccc1n2C [9-hydroxy-6-methyl-ellipticinium iodomethylate]
Solubility [4]: much more soluble than the 9-hydroxy-ellipticinium iodomethylate

Cc1c2ccncc2c(C)c2c1[nH]c1ccc(O)cc12 [Example 9-OH--E, 9-hydroxy-ellipticine, reference compound]
ED (ILS 25%) ([1]; Mus musculus, L1210, ip, read-out: L 1210 cells: in vivo dose to reach ILS 25%): 10 mg/kg | LDo (highest non lethal dose / sublethal dose) for mice [3]: 50 mg/kg | pKd [5]: 6.36 | Elimination [6]: mostly eliminated through the bile into feces | Organ distribution (autoradiography) [6]: concentrates in several organs, including the lungs and the pancreas | Metabolism [7]: only glucuroconjugated

Cc1c2ccncc2c(C)c2c1[nH]c1ccccc12 [ellipticine]
Metabolism [7]: hydroxylated in the 9-position and then glucuroconjugated
